How the values were obtained:
human FPR1 = target: T1, human FPR1 (Homo sapiens, UniProt P21462); assay: FPR1 cyclic adenosine monophosphate (cAMP) assay; type: cell-based; details: CHO cells overexpressing human FPR1; forskolin 10 μM; inhibition of cAMP production; HTRF; read-out: hFPR1 cAMP2 EC50
T1 sequence (P21462 1-350): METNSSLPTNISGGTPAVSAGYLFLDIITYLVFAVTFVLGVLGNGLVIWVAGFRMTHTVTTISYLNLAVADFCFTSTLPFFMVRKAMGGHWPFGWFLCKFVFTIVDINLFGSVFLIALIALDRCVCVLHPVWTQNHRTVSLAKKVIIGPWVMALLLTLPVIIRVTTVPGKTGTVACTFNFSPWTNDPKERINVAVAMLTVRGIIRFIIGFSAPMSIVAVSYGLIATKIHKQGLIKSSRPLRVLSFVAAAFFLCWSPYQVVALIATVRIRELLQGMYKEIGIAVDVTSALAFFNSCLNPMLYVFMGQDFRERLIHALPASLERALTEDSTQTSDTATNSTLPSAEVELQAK
In short: (§1)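 Gi-coupled activity is read as suppression of forskolin-stimulated cAMP (10 μM final for FPR1, 5 μM final for FPR2; IBMX 200 μM final) in recombinant CHO cells, 30 min incubation at rt, HTRF detection.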

human FPR2 = target: T2, human FPR2 (Homo sapiens, UniProt P25090); assay: FPR2 cyclic adenosine monophosphate (cAMP) assay; type: cell-based; details: CHO cells overexpressing human FPR2; forskolin 5 μM; inhibition of cAMP production; HTRF; read-out: hFPR2 cAMP2 EC50
T2 sequence (P25090 1-351): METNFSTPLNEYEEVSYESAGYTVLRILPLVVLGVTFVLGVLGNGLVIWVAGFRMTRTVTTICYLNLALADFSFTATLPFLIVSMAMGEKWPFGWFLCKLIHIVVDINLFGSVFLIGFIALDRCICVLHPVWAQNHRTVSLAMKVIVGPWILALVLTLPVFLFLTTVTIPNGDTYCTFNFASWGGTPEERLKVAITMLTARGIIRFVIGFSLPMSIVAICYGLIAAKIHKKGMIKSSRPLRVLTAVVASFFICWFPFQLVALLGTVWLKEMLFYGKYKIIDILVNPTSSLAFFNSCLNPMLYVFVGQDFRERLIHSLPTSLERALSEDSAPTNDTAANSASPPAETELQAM
In short: as §1

Q: Which EC50 (human FPR1) does the source give for `COC(=O)c1cccc(-n2c(=O)c(NC(=O)c3ccc(OC(F)F)cc3)c(-c3c(F)cc(OC)cc3F)n2C)c1` [Example 113, methyl 3-[3-(2,6-difluoro-4-methoxyphenyl)-4-[4-(difluoromethoxy)benzamido]-2-methyl-5-oxo-2,5-dihydro-1H-pyrazol-1-yl]benzoate] here?
A: 2 nM

Q: And the EC50 (human FPR2)?
A: 2 nM

Q: Which results are given for `COc1cc(F)c(-c2c(NC(=O)c3ccc(OC(F)F)cc3)c(=O)n(-c3ccnc(OC)c3)n2C)c(F)c1` [Example 115, N-[5-(2,6-difluoro-4-methoxyphenyl)-2-(2-methoxypyridin-4-yl)-1-methyl-3-oxo-2,3-dihydro-1H-pyrazol-4-yl]-4-(difluoromethoxy)benzamide]?
A: EC50 (human FPR1): 280 nM; EC50 (human FPR2): 5 nM

Q: What does the source list for `COc1cc(F)c(-c2c(NC(=O)c3ccc(OC(F)F)cc3)c(=O)n(-c3ccnc(Cl)c3)n2C)c(F)c1` [Example 116, N-[2-(2-chloropyridin-4-yl)-5-(2,6-difluoro-4-methoxyphenyl)-1-methyl-3-oxo-2,3-dihydro-1H-pyrazol-4-yl]-4-(difluoromethoxy)benzamide]?
A: EC50 (human FPR1): 2000 nM; EC50 (human FPR2): 21 nM

Q: Which results are given for `COc1cc(-n2c(=O)c(NC(=O)c3ccc(OC(F)F)cc3)c(-c3c(F)cc(OC)cc3F)n2C)cc(C(F)(F)F)c1` [Example 117, N-[5-(2,6-difluoro-4-methoxyphenyl)-2-[3-methoxy-5-(trifluoromethyl)phenyl]-1-methyl-3-oxo-2,3-dihydro-1H-pyrazol-4-yl]-4-(difluoromethoxy)benzamide]?
A: EC50 (human FPR1): > 10000 nM; EC50 (human FPR2): 8 nM

Q: Which results are given for `CCOc1cccc(-n2c(=O)c(NC(=O)c3ccc(OC(F)F)cc3)c(-c3c(F)cc(OC)cc3F)n2C)c1` [Example 118, N-[5-(2,6-difluoro-4-methoxyphenyl)-2-(3-ethoxyphenyl)-1-methyl-3-oxo-2,3-dihydro-1H-pyrazol-4-yl]-4-(difluoromethoxy)benzamide]?
A: EC50 (human FPR1): 3 nM; EC50 (human FPR2): 6 nM

Q: How did the EC50 (human FPR1) turn out when `COc1cc(F)c(-c2c(NC(=O)c3ccc(OC(F)F)cc3)c(=O)n(-c3cc(C#N)cc(C(C)C)c3)n2C)c(F)c1` [Example 119, N-{2-[3-cyano-5-(propan-2-yl)phenyl]-5-(2,6-difluoro-4-methoxyphenyl)-1-methyl-3-oxo-2,3-dihydro-1H-pyrazol-4-yl}-4-(difluoromethoxy)benzamide] was run?
A: 65 nM

Q: And the EC50 (human FPR2)?
A: 8 nM

Q: `COC(=O)c1cc(Cl)cc(-n2c(=O)c(NC(=O)c3ccc(OC(F)F)cc3)c(-c3c(F)cc(OC)cc3F)n2C)c1` [Example 120, methyl 3-chloro-5-[3-(2,6-difluoro-4-methoxyphenyl)-4-[4-(difluoromethoxy)benzamido]-2-methyl-5-oxo-2,5-dihydro-1H-pyrazol-1-yl]benzoate] was tested. Which EC50 (human FPR1) did it give?
A: 6000 nM

Q: And the EC50 (human FPR2)?
A: 4 nM

Q: `COc1cc(C)cc(-n2c(=O)c(NC(=O)c3ccc(OC(F)F)cc3)c(-c3c(F)cc(OC)cc3F)n2C)c1` [Example 121, N-[5-(2,6-difluoro-4-methoxyphenyl)-2-(3-methoxy-5-methylphenyl)-1-methyl-3-oxo-2,3-dihydro-1H-pyrazol-4-yl]-4-(difluoromethoxy)benzamide] was tested. Which EC50 (human FPR1) did it give?
A: > 10000 nM

Q: What about the EC50 (human FPR2) of the same compound?
A: 6 nM

Q: What does the source list for `CCOc1cc(-n2c(=O)c(NC(=O)c3ccc(OC(F)F)cc3)c(-c3c(F)cc(OC)cc3F)n2C)cc(C(F)(F)F)c1` [Example 122, N-[5-(2,6-difluoro-4-methoxyphenyl)-2-[3-ethoxy-5-(trifluoromethyl)phenyl]-1-methyl-3-oxo-2,3-dihydro-1H-pyrazol-4-yl]-4-(difluoromethoxy)benzamide]?
A: EC50 (human FPR1): > 10000 nM; EC50 (human FPR2): 21 nM

Q: `COc1cc(F)c(-c2c(NC(=O)c3ccc(OC(F)F)cc3)c(=O)n(-c3cc(Cl)cc(OC(F)(F)F)c3)n2C)c(F)c1` [Example 123, N-{2-[3-chloro-5-(trifluoromethoxy)phenyl]-5-(2,6-difluoro-4-methoxyphenyl)-1-methyl-3-oxo-2,3-dihydro-1H-pyrazol-4-yl}-4-(difluoromethoxy)benzamide] was tested. Which EC50 (human FPR1) did it give?
A: > 10000 nM

Q: What about the EC50 (human FPR2) of the same compound?
A: 19 nM

— patent US12577206B2 (BRISTOL-MYERS SQUIBB COMPANY, priority 2020, dated 2026)
